Target: T1, cytoplasmic kinase domain of human IGF-1R (IGF-1R-GST) (Homo sapiens, UniProt P08069)
T1 construct: cytoplasmic kinase domain of human IGF-1R (amino acids 964-1370); GST (glutathione-S-transferase); made in house; host or cells: High Five insect cells (Invitrogen)
Assay: Insulin-like growth factor-1 receptor (IGF-1R) kinase assay (DELFIA)
Type: biochemical
Conditions: IGF-1R-GST kinase activity, read-out: IGF1R IC50
Method: Insulin-Like Growth Factor-1 Receptor (IGF-1R)-Kinase Assay
The kinase activity is measured by DELFIA® assay (dissociation-enhanced lanthanide fluorescence immunoassay, Perkin Elmer). […] Enzyme activity is measured in the presence of substances and a control substance. Poly-glutamate-tyrosine peptide (pEY, Sigma Aldrich) and biotinylated pEY (bio-pEY) are used as reaction substrates.
After 40 min at RT the reactions are stopped with 50 μL of stop solution (250 mM EDTA, 20 mM HEPES pH 7.4). 90 μL from each reaction are transferred onto streptavidin-coated 96-well plates. After 120 min incubation at RT the plates are washed three times with 200 μL phosphate-buffered saline (PBS) per well. The plates are incubated for 60 min with 100 μL of europium-coupled antibody against phospho-tyrosine (diluted 1/2000 in Perkin Elmer DELFIA assay buffer) per well. The plates are washed three times with 200 μL per well of DELFIA washing buffer. 100 μL DELFIA Enhancement Solution (Perkin Elmer) is added to each well, and the plates are incubated for 10 min. The fluorescence signal is measured with a Wallac Victor TRF Reader. IC50 values for the inhibition of the IGF-1R-kinase activity are calculated using the programmes Fifty (Version 2) and GraphPad (Version 3.0).

T1 sequence (P08069 964-1367 limits assumed): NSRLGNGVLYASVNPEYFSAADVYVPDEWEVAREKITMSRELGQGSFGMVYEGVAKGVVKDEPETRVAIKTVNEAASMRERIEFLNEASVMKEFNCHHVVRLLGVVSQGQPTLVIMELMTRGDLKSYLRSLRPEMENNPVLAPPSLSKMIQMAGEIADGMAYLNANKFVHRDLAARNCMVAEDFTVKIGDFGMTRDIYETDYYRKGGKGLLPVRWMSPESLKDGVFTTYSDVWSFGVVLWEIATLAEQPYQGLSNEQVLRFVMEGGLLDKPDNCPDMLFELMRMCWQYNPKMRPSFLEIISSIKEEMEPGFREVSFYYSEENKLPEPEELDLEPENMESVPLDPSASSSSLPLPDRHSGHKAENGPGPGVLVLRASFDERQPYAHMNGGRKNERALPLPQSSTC

| Structure (SMILES) | IC50 |
| --- | --- |
| COc1cc(N2CCC(N3CC[C@@H](O)C3)CC2)ccc1Nc1ncc(C(F)(F)F)c(NCc2cccc3c2C(C)(C)C(=O)N3)n1 [Example I-174] | 0.81 nM |
| COc1cc(N2CC3CC2CN3C2CCC2)ccc1Nc1ncc(C(F)(F)F)c(NCc2cccc3c2C(C)(C)C(=O)N3)n1 (stereo not drawn) [Example I-148] | 3 nM |
| COc1cc(N2CCN(C3CCN(C(=O)N(C)C)CC3)CC2)ccc1Nc1ncc(C(F)(F)F)c(NCc2cccc3c2CC(=O)N3)n1 [Example I-123] | 12 nM |
| COCCN(C)C1CCN(c2ccc(Nc3ncc(C(F)(F)F)c(NCc4cccc5c4C(C)(C)C(=O)N5)n3)c(OC)c2)CC1 [Example I-175] | 0.87 nM |
| COc1cc(N2CCC(O)CC2)ccc1Nc1ncc(C(F)(F)F)c(NCc2cccc3c2CC(=O)N3)n1 [Example I-237] | 21 nM |
| CN1CCN(c2ccc(Nc3ncc(Cl)c(NCc4cccc5c4C(C)(C)C(=O)N5)n3)cc2)CC1 [Example I-94] | 14 nM |
| COc1cc(N2CCC(N3CCN(S(C)(=O)=O)CC3)CC2)ccc1Nc1ncc(C(F)(F)F)c(NCc2cccc3c2C(C)(C)C(=O)N3)n1 [Example I-25] | 7 nM |
| CC(C)(C)OC(=O)N1CCC[C@H]1C(=O)N1CCC(c2ccc(Nc3ncc(Cl)c(NCc4cccc5c4C(C)(C)C(=O)N5)n3)cc2)CC1 [Example I-44] | 25 nM |
| COc1cc(N2CCN(C3CCN(CC#N)CC3)CC2)ccc1Nc1ncc(C(F)(F)F)c(NCc2cccc3c2CC(=O)N3)n1 [Example I-113] | 3 nM |
| CN1CCC(c2ccc(Nc3ncc(Cl)c(NCc4cccc5c4C4(CC4)C(=O)N5)n3)cc2)CC1 [Example I-161] | 0.96 nM |
| COc1cc(N2CCN(C(=O)C3CCN(C)CC3)CC2)ccc1Nc1ncc(Cl)c(NCc2cccc3c2C(C)(C)C(=O)N3)n1 [Example I-60] | 3 nM |
| COc1cc(N2CCNCC2)ccc1Nc1ncc(Cl)c(NCc2cccc3c2C(C)(C)C(=O)N3)n1 [Example I-254] | 2.2 nM |
| COc1cc(N2CCN(CC3CC3)CC2)ccc1Nc1ncc(C(F)(F)F)c(NCc2cccc3c2CC(=O)N3)n1 [Example I-165] | 4 nM |
| CCOc1cc(N2CCN(C3COC3)CC2)ccc1Nc1ncc(C(F)(F)F)c(NCc2cccc3c2C(C)(C)C(=O)N3)n1 [Example I-146] | 4 nM |
| COC(=O)N1CC2CC1CN2c1ccc(Nc2ncc(C(F)(F)F)c(NCc3cccc4c3C(C)(C)C(=O)N4)n2)c(OC)c1 (stereo not drawn) [Example I-82] | 65 nM |
| COc1cc(N2CCN(C3CCC3)CC2)ccc1Nc1ncc(C(F)(F)F)c(NCc2cccc3c2C(C)(C)C(=O)N3)n1 [Example I-155] | 1 nM |
| COc1cc(N2CCC(N3CCN(C4CCOCC4)CC3)CC2)ccc1Nc1ncc(C(F)(F)F)c(NCc2cccc3c2CC(=O)N3)n1 [Example I-200] | 13 nM |
| COc1cc(C(=O)N2CCOCC2)ccc1Nc1ncc(C(F)(F)F)c(NCc2cccc3c2C(C)(C)C(=O)N3)n1 [Example I-234] | 8 nM |
| COc1cc(N2CCC(N3CCOCC3)CC2)ccc1Nc1ncc(C(F)(F)F)c(NCc2cccc3c2CC(=O)N3)n1 [Example I-196] | 8 nM |

| Structure (SMILES) | IC50 |
| --- | --- |
| COc1cc(N2CCN(C3CCN(S(C)(=O)=O)CC3)CC2)ccc1Nc1ncc(C(F)(F)F)c(NCc2cccc3c2CC(=O)N3)n1 [Example I-125] | 15 nM |
| COc1cc(N2CC3CC2CN3C(C)=O)ccc1Nc1ncc(C(F)(F)F)c(NCc2cccc3c2C(C)(C)C(=O)N3)n1 (stereo not drawn) [Example I-80] | 47 nM |
| CCOC(=O)N1CCC(N2CCN(c3ccc(Nc4ncc(C(F)(F)F)c(NCc5cccc6c5CC(=O)N6)n4)c(OC)c3)CC2)CC1 [Example I-166] | 11 nM |
| CCOc1cc(N2CCNCC2)ccc1Nc1ncc(C(F)(F)F)c(NCc2cccc3c2C(C)(C)C(=O)N3)n1 [Example I-33] | 0.6 nM |
| COc1cc(C(=O)NC2CCN(C)CC2)ccc1Nc1ncc(C(F)(F)F)c(NCc2cccc3c2C(C)(C)C(=O)N3)n1 [Example I-228] | 8 nM |
| COc1cc(C2CCN(C(=O)CN(C)C)CC2)ccc1Nc1ncc(Cl)c(NCc2cccc3c2C(C)(C)C(=O)N3)n1 [Example I-58] | 1 nM |
| COc1cc(N2CCC(C(=O)N(C)C)CC2)ccc1Nc1ncc(C(F)(F)F)c(NCc2cccc3c2C(C)(C)C(=O)N3)n1 [Example I-230] | 13 nM |
| COc1cc(N2CC3CC2CN3C(=O)N(C)C)ccc1Nc1ncc(C(F)(F)F)c(NCc2cccc3c2C(C)(C)C(=O)N3)n1 (stereo not drawn) [Example I-81] | 81 nM |
| COCCN1CCC(N2CCN(c3ccc(Nc4ncc(C(F)(F)F)c(NCc5cccc6c5CC(=O)N6)n4)c(OC)c3)CC2)CC1 [Example I-122] | 15 nM |
| COc1cc(N2CCN(C3CCN(C4CC4)CC3)CC2)ccc1Nc1ncc(C(F)(F)F)c(NCc2cccc3c2CC(=O)N3)n1 [Example I-112] | 5 nM |
| COc1cc(N2CCC(N3CCC(C#N)CC3)CC2)ccc1Nc1ncc(C(F)(F)F)c(NCc2cccc3c2CC(=O)N3)n1 [Example I-195] | 7 nM |
| COc1cc(N2CCC(N(C)C)CC2)ccc1Nc1ncc(C(F)(F)F)c(NCc2cccc3c2CC(=O)N3)n1 [Example I-184] | 4 nM |
| CCOc1cc(N2CCN(C(C)=O)CC2)ccc1Nc1ncc(C(F)(F)F)c(NCc2cccc3c2CC(=O)N3)n1 [Example I-78] | 30 nM |
| COc1cc(N2CCN(C3CCOCC3)CC2)ccc1Nc1ncc(C(F)(F)F)c(NCc2cccc3c2C(C)(C)C(=O)N3C)n1 [Example I-126] | 3 nM |
| COc1cc(N2CCN(CC3CC3)CC2)ccc1Nc1ncc(C(F)(F)F)c(NCc2cccc3c2C(C)(C)C(=O)N3)n1 [Example I-162] | 2 nM |
| CC(C)(O)CN1CCC(c2ccc(Nc3ncc(C(F)(F)F)c(NCc4cccc5c4C(C)(C)C(=O)N5)n3)c3c2OCO3)CC1 [Example I-315] | 1.9 nM |
| COc1cc(C2CCN(C)CC2)ccc1Nc1ncc(Cl)c(NCc2cccc3c2C(C)(C)C(=O)N3)n1 [Example I-100] | 2 nM |
| COc1cc(N2CCN(C(C)C)CC2)ccc1Nc1ncc(C(F)(F)F)c(NCc2cccc3c2C(C)(C)C(=O)N3C)n1 [Example I-128] | 2 nM |
| CCc1cc(Nc2ncc(C(F)(F)F)c(NCc3cccc4c3CC(=O)N4)n2)c(OC)cc1N1CCN(C(C)C)CC1 [Example I-137] | 65 nM |

| Structure (SMILES) | IC50 |
| --- | --- |
| CCN1CCN(c2ccc(Nc3ncc(C(F)(F)F)c(NCc4cccc5c4C(C)(C)C(=O)N5)n3)c(OC)c2)C[C@H]1C [Example I-107] | 0.62 nM |
| CCOc1cc(N2CCN(C(C)C)CC2)ccc1Nc1ncc(C(F)(F)F)c(NCc2cccc3c2C(C)(C)C(=O)N3)n1 [Example I-143] | 1 nM |
| CCOc1cc(N2CCN(C3CCN(C)CC3)CC2)ccc1Nc1ncc(C(F)(F)F)c(NCc2cccc3c2C(C)(C)C(=O)N3)n1 [Example I-145] | 0.67 nM |
| COC(=O)N1CCN(c2ccc(Nc3ncc(C(F)(F)F)c(NCc4cccc5c4C(C)(C)C(=O)N5)n3)c(OC)c2)C[C@H]1C [Example I-73] | 29 nM |
| COc1cc(N2CCN(C)[C@H](C)C2)ccc1Nc1ncc(C(F)(F)F)c(NCc2cccc3c2C(C)(C)C(=O)N3)n1 [Example I-108] | 0.93 nM |
| COc1cc(N2CCN(C(C)C)CC2)ccc1Nc1ncc(C(F)(F)F)c(NCc2cccc3c2CC(=O)N3)n1 [Example I-116] | 10 nM |
| COc1cc(N2CCN(C3CCN(C)CC3)CC2)ccc1Nc1ncc(C(F)(F)F)c(NCc2cccc3c2CC(=O)N3)n1 [Example I-117] | 9 nM |
| COc1cc(N2CCC(N3CCCC3)CC2)ccc1Nc1ncc(C(F)(F)F)c(NCc2cccc3c2CC(=O)N3)n1 [Example I-189] | 5 nM |
| COc1cc(N2CCN(C3CCN(C(C)=O)CC3)CC2)ccc1Nc1ncc(C(F)(F)F)c(NCc2cccc3c2CC(=O)N3)n1 [Example I-110] | 8 nM |
| COc1cc(N2CCC(N3CCC(OC)CC3)CC2)ccc1Nc1ncc(C(F)(F)F)c(NCc2cccc3c2C(C)(C)C(=O)N3)n1 [Example I-170] | 0.33 nM |
| COc1cc(N2CCC(N3CCN(S(C)(=O)=O)CC3)CC2)ccc1Nc1ncc(C(F)(F)F)c(NCc2cccc3c2CC(=O)N3)n1 [Example I-26] | 9 nM |
| CN(C)CC(=O)N1CCC(c2ccc(Nc3ncc(C(F)(F)F)c(NCc4cccc5c4C(C)(C)C(=O)N5)n3)cc2)CC1 [Example I-75] | 2 nM |
| CC(C)(C)OC(=O)NCC(=O)N1CCC(c2ccc(Nc3ncc(Cl)c(NCc4cccc5c4C(C)(C)C(=O)N5)n3)cc2)CC1 [Example I-45] | 23 nM |
| CC1(C)C(=O)Nc2cccc(CNc3nc(Nc4ccc(C5CCN(C6COC6)CC5)cc4)ncc3Cl)c21 [Example I-93] | 5 nM |
| CCN1CC2CC1CN2c1ccc(Nc2ncc(C(F)(F)F)c(NCc3cccc4c3C(C)(C)C(=O)N4)n2)c(OC)c1 (stereo not drawn) [Example I-153] | 2 nM |
| COc1cc(N2CCN(C(=O)CN(C)C)CC2)ccc1Nc1ncc(Cl)c(NCc2cccc3c2C(C)(C)C(=O)N3)n1 [Example I-62] | 1 nM |
| CC1(C)C(=O)Nc2cccc(CNc3nc(Nc4ccc(C5CCN(C(=O)[C@@H]6CCCN6)CC5)cc4)ncc3Cl)c21 [Example I-49] | 5 nM |
| COc1cc(N2CCC(N3CCCC3)CC2)ccc1Nc1ncc(C(F)(F)F)c(NCc2cccc3c2C(C)(C)C(=O)N3)n1 [Example I-180] | 2 nM |
| CC1(C)C(=O)Nc2cccc(CNc3nc(Nc4ccc(C5CCN(C(=O)CN)CC5)cc4)ncc3Cl)c21 [Example I-50] | 3 nM |
